Tests used:
[1] = Population pharmacokinetic analysis (Nonmem) in healthy volunteers and Alzheimer's and Parkinson's patients; assay type: in vivo, human; settings: popPK
Experimental: Population pharmacokinetic analysis was conducted using data from healthy volunteers from Study 101 (single ascending dose study with 72 subjects) and Study 102 (multiple dose study with 48 volunteers) and in patients (multiple dose study in 68 patients with early Alzheimer’s or early Parkinson’s disease). Data were fit using a Bayesian approach as implemented in the software package Nonmem® (version 7.5.1, Icon Development Solutions, Dublin, Ireland). Standard model building approaches were used. After a base model was established, covariates were evaluated singly and assessed graphically using eta plots—The full model consisted of all statistically significant covariates identified during the single covariate evaluation phase, and back elimination was conducted. Each covariate was removed from the full model, and the impact of that removal was assessed based on model output. The final model performance was assessed graphically and using simulation with a visual predictive check (VPC). […]
The asymptotic standard errors (SEs) and nonparamet ric bootstrapped confidence intervals (CIs) estimated the parameter precision. Other model statistics were evaluated, such as etabar and associated p values. […]
substantial skewness or kurtosis; therefore, transforms were not evaluated. […]
Plasma concentration data were evaluated using an LTBS approach. […]

[2] = Plasma pharmacokinetics after oral Posiphen in Beagle dogs (LC-MS/MS); set-up: species or system dog; settings: for Mean plasma concentration: Beagle dogs, Posiphen 20 mg/kg; for Tmax: dog plasma, Posiphen PO 20 mg/kg, n = 12
Experimental: In rats and dogs, blood samples were centrifuged, and the resultant plasma was separated, and 200 µL (rat) or 400 µL (dog) of plasma was transferred to uniquely labeled pre-chilled polypropylene tubes containing 5 µL (rat) or 10 µL (dog) Dichlorvos spiking solution (nominal concentration of 0.82 mg/mL in MeOH/Water, 20/80, v/v).
The detection limit was 0.025 ng/mL.

[3] = human; side effects nausea and vomiting; cited from earlier work
acetylcholinesterase = settings: cited from earlier work
in vivo = settings: CD-1, mouse; for T1/2 / Tmax / Tmax (time of Cmax) / Cmax: po; for Cmax: 65 mg/kg
Experimental: The animal PKs were taken from multiple GLP toxicology studies, biomarker studies, and efficacy studies. […] Sample size (n) represents the number of animals at each time point of sample collection. […] The dose volume was determined according to animals’ weight collected on the dosing day.
In mice, blood samples were collected via the saphenous vein or other suitable blood collection site into a microcentrifuge tube containing the anti-coagulant K2-EDTA on wet ice and processed for plasma. For samples collected within the first hour of dosing, ±1 min is acceptable, while for all other timepoints, samples were taken within 5% of the scheduled time and are not considered as protocol deviations. Plasma samples were centrifuged (3200× g for 10 min at 4 °C) within an hour of collection. CSF samples were collected with 3 μL volume per time point, frozen on dry ice, and stored at −60 °C for further analysis. For brain collection in mice, animals were euthanized using CO2 inhalation. Whole brain was collected, washed in cold saline, dried, and homogenized immediately […]. Homogenizing buffer MeOH/15 mM PBS (1:2, v:v) was used at a ratio of 1:9 (1 g of tissue with 9 mL of buffer; the dilution ratio is 10).
In humans, the bioanalytical method was performed in accordance with current FDA, Industry Guidelines, and OECD Principles. […] The sample analysis was conducted in accordance with current GCP and GLP principles, and the results were presented for pharmacokinetic profiling (Absorption Systems, Exton, PA, USA). Calibration ranges for each analyte ranged from 1000 ng/mL to 1 ng/mL (or ng/g for brain) in plasma, brain, and CSF matrices. The detection limit was 0.025 ng/mL. The following PK parameters were collected for the purpose of this manuscript: maximum concentration (Cmax), time to maximum drug concentration (Tmax), half-life (T1/2), and the Area Under the Curve (AUC).

LogD = assay type: physicochemical
[4] = both sexes, Beagle, dog, in vivo, po, 20 mg/kg

CN1CC[C@]2(C)c3cc(OC(=O)Nc4ccccc4)ccc3N(C)C12.O=C(O)C(O)C(O)C(=O)O (stereo partly drawn) [Posiphen, (3aR)-1,3a, 8-trimethyl-1,2,3,3a, 8,8a-hexahydropyrrolo (2,3-b) indol-5-yl phenylcarbamate tartrate]
Km ([1]; human, plasma, oral, as dose increased from 0.04 to 2.4 mg/kg, read-out: Michaelis constant (km)): 0.01 to 0.015 µg/mL | Variability in absorption, metabolism and clearance between healthy subjects and Alzheimer's or Parkinson's patients [1]: no variability | Mean plasma concentration ([2]; 0.25 h): 2.34 ng/mL | Mean plasma concentration ([2]; 0.5 h): 241 ng/mL | Mean plasma concentration ([2]; 1 h): 326 ng/mL | Mean plasma concentration ([2]; 2 h): 203 ng/mL | Mean plasma concentration ([2]; 4 h): 32.3 ng/mL | Mean plasma concentration ([2]; 8 h): 4.4 ng/mL | Mean plasma concentration ([2]; 12 h): 1.27 ng/mL | Cmax [2, 4]: 402 ng/mL | half-life [2, 4]: 1.96 h | Tmax ([2]; both sexes, Beagle, dog, in vivo, po, 20 mg/kg, read-out: Tmax): 1 to 2 h | AUC(0-t) ([2]; both sexes, Beagle, dog, in vivo, po, 20 mg/kg, read-out: AUC (0–8 h)): 756 ng·h/mL | Tmax ([2]; 20 mg/kg): 1.18 h | Maximum tolerated dose [3]: 160 mg | Acetylcholinesterase inhibitory (AChEI) activity (acetylcholinesterase): no acetylcholinesterase inhibitory (AChEI) activity | Kp (in vivo): 5.04 | Kp (in vivo; in vivo): 0.17 | T1/2 (in vivo; in vivo): 0.5 h | Tmax (in vivo; in vivo): 2.32 h | Tmax (time of Cmax) (in vivo; in vivo): 0.5 h | Cmax (in vivo; in vivo, Cmax): 163 ng/mL | T1/2 (in vivo): 0.5 h | Tmax (in vivo): 0.74 h | Tmax (time of Cmax) (in vivo): 0.5 h | Cmax (in vivo): 4740 ng/mL | logD (LogD): 2.2

— article PMC11117716 (Biomolecules, 2024)
